Read-outs that look alike come from different tables or passages of the source. Marks after values point to notes of the source that are not given here.
Experiments:
[1] = Phase 1 PK Part 2: relative bioavailability, dose proportionality, food effect of milled API tablet; format: in vivo, human
Procedure: This is a Phase 1, open-label, single dose, multicenter, 4-part study in healthy adult participants.
Potential participants will be screened from Day −28 to Day −2 to determine participants' eligibility for study participation. For Part 1, qualified participants will be admitted on Day −1 of each treatment period and will remain in-house for the total duration of the treatment (Day −1 until Day 5, with single-dose treatment on Day 1 and 96 hours of PK), whereas for Part 2, PK sampling will be done up to 120 hours (Day 6). Each dosed participant will have a safety follow-up on Day 10 to Day 14 after last dose of the study intervention.
The Part 2 of the study involves determination of relative bioavailability for tablet (Formulation Concept 2, i.e., milled (microfine) aticaprant formulation; see Table 10) and capsule formulations (see Example 6, study design, for description of capsule formulation) and dose proportionality and food effect for tablet formulation (Formulation Concept 2) in healthy adult participants (FIG. 26). Part 2 will consist of Subpart 2A and Subpart 2B consisting of a total of 4 periods. […] Participants will be assigned to 1 of 6 treatment sequences (Table 55) and will be administered the 3 treatments in a 3-way crossover. The same 24 participants who complete Subpart 2A will be enrolled in Subpart 2B. Subpart 2B consists of a fourth period to evaluate the food effect of a single dose of 10 mg aticaprant administered as 1×10 mg oral tablet (Formulation Concept 2) under fed conditions (Treatment H; Tables 54 and 56). A preliminary PK analysis will be conducted at the end of the food effect part (Subpart 2B) for all the periods from Part 2 and will include the food effect data.
For each individual participant, there will be a washout period of at least 7 days for Part 1 and at least 8 days for Part 2 between subsequent intakes of the study intervention. Day 1 of a treatment period (day of study intervention intake) is the first day of the washout period (also in between the study parts, if applicable).
Participants will be fasting in Part 1A and Part 2A. Participants will have been fed in Parts 1B and 2B. For a fasted condition, participants will fast (nothing to cat or drink except noncarbonated water) overnight for at least 10 hours before and until 4 hours after study intervention administration during each fasted treatment period. Approximately, 4 hours post-dose and after the 4-hour PK sampling, a standard lunch will be served at the study-site. Intake of water is allowed until 2 hours before the intake of the study intervention. Thereafter, water intake is only allowed for study intervention intake and for breakfast, if applicable. Drinking of water is allowed ad libitum from approximately 2 hours after dosing. For a fed condition, participants will consume, after an overnight fast (at least 10 hours), a standardized high-fat breakfast within a 20-minute period. […] Study intervention will be administered approximately 30 minutes after the start of the breakfast.
In Parts 1 and 2, plasma concentrations will be determined for aticaprant. Blood samples for determination of plasma concentrations of aticaprant will be collected predose and at the postdose time points starting on Day 1 as indicated in the Tables 57-58.
The following plasma PK parameters of aticaprant will be determined. A noncompartmental model with extravascular input will be used for the pharmacokinetic analysis.
Based on the individual concentration-time data, using the actual sampling times, the following PK parameters will be derived for aticaprant: […]

[2] = Plasma Cmax of aticaprant in subjects with MDD (Example 6); format: in vivo; conditions: human, oral, 10 mg, 10 mg once daily, read-out: Cmax, Arithmetic Mean (SD)
From the text: vi. To assess the plasma PK of aticaprant in subjects with MDD and explore its relationship with efficacy and safety parameters.
Cmax is defined as maximum plasma concentration of aticaprant. […] Here ‘N’ (number of subjects analyzed) includes the number of subjects evaluable for this endpoint. Here ‘n’ (number analyzed) included all subjects evaluable for specified time point categories.

[3] = Dose proportionality: Treatment G (5 mg milled API tablet normalized to 10 mg, Test)/Treatment F (10 mg, Reference), fasting
[4] = Food effect: Treatment H (high-fat diet, Test)/Treatment F (fasted, Reference), 10 mg milled API tablet
[5] = Relative BA: Treatment F (10 mg milled API tablet, Test)/Treatment E (2 × 5 mg capsule, Reference), fasting
[6] = Treatment E: 2 × 5 mg oral capsule, fasting, mean
[7] = Treatment F: 1 × 10 mg Formulation Concept 2 (milled API tablet), fasting, mean (SD)
[8] = Treatment G (1 × 5 mg Formulation Concept 2, fasting), dose normalized to 10 mg, mean (SD)
[9] = Treatment G: 1 × 5 mg Formulation Concept 2 (milled API tablet), fasting, mean
[10] = Treatment H: 1 × 10 mg Formulation Concept 2 (milled API tablet), after high-fat breakfast, mean

## Cc1cc(C)cc(C2CCCN2Cc2ccc(Oc3ccc(C(N)=O)cc3F)cc2)c1 (stereo not shown) [aticaprant, 3-fluoro-4-4-2-(3,5-dimethylphenyl)pyrrolidin-1-yl-methylphenoxybenzamide]
[1]; Dose proportionality, completers, Treatment G (Test): 1 × 5 mg Formulation Concept 2, fasting, Dose Normalized to 10 mg
  Geometric Mean Cmax: 32.5 ng/mL
[1]; [3]
  Ratio of Geometric Means, AUClast: 104.15%
  Ratio of Geometric Means, AUC∞: 106.40%
  Ratio of Geometric Means, Cmax: 105.13%
[1]; [4]
  Ratio of Geometric Means, AUClast: 134.90%
  Ratio of Geometric Means, AUC∞: 135.55%
  Ratio of Geometric Means, Cmax: 107.30%
[1]; [5]
  Ratio of Geometric Means, AUClast: 94.31%
  Ratio of Geometric Means, AUC∞: 93.66%
  Ratio of Geometric Means, Cmax: 102.30%
[1]; [6]
  % AUC∞, ex: 5.02%
  CL/F: 34.8 L/h
  λz: 0.024 h⁻¹
[1]; [7]
  % AUC∞, ex: 5.50 (3.17) %
  CL/F: 35.8 (12.1) L/h
  Cmax: 32.4 (7.39) ng/mL
  λz: 0.024 (0.007) 1/h
[1]; [8]
  AUClast, G Dose Normalized: 314 (160) h * ng/mL
  AUC∞, G Dose Normalized: 308 (74.1)^a h * ng/mL
  Cmax, G Dose Normalized: 34.7 (11.6) ng/mL
[1]; [9]
  % AUC∞, ex: 6.93%
  CL/F: 34.7 L/h
  λz: 0.030 h⁻¹
[1]; [10]
  % AUC∞, ex: 4.92%
  CL/F: 27.0 L/h
  Cmax: 34.0 ng/mL
  λz: 0.025 h⁻¹
[1]; human, plasma, oral, 5 mg, Dose proportionality, completers, Treatment G (Test): 1 × 5 mg Formulation Concept 2, fasting, Dose Normalized to 10 mg, read-out: Geometric Mean AUClast
  AUC(0-t): 285 ng·h/mL
[1]; human, plasma, oral, 5 mg, Dose proportionality, completers, Treatment G (Test): 1 × 5 mg Formulation Concept 2, fasting, Dose Normalized to 10 mg, read-out: Geometric Mean AUC∞
  AUC(0-inf): 296 ng·h/mL
[1]; human, plasma, oral, 5 mg, Treatment G: 1 × 5 mg Formulation Concept 2 (milled API tablet), fasting, mean
  half-life: 26.6 h
[1]; human, plasma, oral, 5 mg, Treatment G: 1 × 5 mg Formulation Concept 2 (milled API tablet), fasting, mean, read-out: AUClast
  AUC(0-t): 157 ng·h/mL
[1]; human, plasma, oral, 5 mg, Treatment G: 1 × 5 mg Formulation Concept 2 (milled API tablet), fasting, mean, read-out: AUC∞
  AUC(0-inf): 154 ng·h/mL
[1]; human, plasma, oral, 5 mg, Treatment G: 1 × 5 mg Formulation Concept 2 (milled API tablet), fasting, mean, read-out: Cmax
  Cmax: 17.4 ng/mL
[1]; human, plasma, oral, 5 mg, Treatment G: 1 × 5 mg Formulation Concept 2 (milled API tablet), fasting, median
  Tmax: 1 h
[1]; human, plasma, oral, 10 mg, Dose proportionality, completers, Treatment F (Reference): 1 × 10 mg Formulation Concept 2, fasting, read-out: Geometric Mean AUClast
  AUC(0-t): 274 ng·h/mL
[1]; human, plasma, oral, 10 mg, Dose proportionality, completers, Treatment F (Reference): 1 × 10 mg Formulation Concept 2, fasting, read-out: Geometric Mean AUC∞
  AUC(0-inf): 279 ng·h/mL
[1]; human, plasma, oral, 10 mg, Dose proportionality, completers, Treatment F (Reference): 1 × 10 mg Formulation Concept 2, fasting, read-out: Geometric Mean Cmax
  Cmax: 30.9 ng/mL
[1]; human, plasma, oral, 10 mg, Food effect, completers, Treatment F (Reference): 1 × 10 mg milled API tablet, fasted, read-out: Geometric Mean AUClast
  AUC(0-t): 279 ng·h/mL
[1]; human, plasma, oral, 10 mg, Food effect, completers, Treatment F (Reference): 1 × 10 mg milled API tablet, fasted, read-out: Geometric Mean AUC∞
  AUC(0-inf): 280 ng·h/mL
[1]; human, plasma, oral, 10 mg, Food effect, completers, Treatment F (Reference): 1 × 10 mg milled API tablet, fasted, read-out: Geometric Mean Cmax
  Cmax: 31.3 ng/mL
[1]; human, plasma, oral, 10 mg, Food effect, completers, Treatment H (Test): 1 × 10 mg milled API tablet, high-fat diet, read-out: Geometric Mean AUClast
  AUC(0-t): 377 ng·h/mL
[1]; human, plasma, oral, 10 mg, Food effect, completers, Treatment H (Test): 1 × 10 mg milled API tablet, high-fat diet, read-out: Geometric Mean AUC∞
  AUC(0-inf): 379 ng·h/mL
[1]; human, plasma, oral, 10 mg, Relative BA, completers, Treatment F (Test): 1 × 10 mg Formulation Concept 2 (milled API tablet), fasting, read-out: Geometric Mean AUClast
  AUC(0-t): 274 ng·h/mL
[1]; human, plasma, oral, 10 mg, Relative BA, completers, Treatment F (Test): 1 × 10 mg Formulation Concept 2 (milled API tablet), fasting, read-out: Geometric Mean AUC∞
  AUC(0-inf): 279 ng·h/mL
[1]; human, plasma, oral, 10 mg, Relative BA, completers, Treatment F (Test): 1 × 10 mg Formulation Concept 2 (milled API tablet), fasting, read-out: Geometric Mean Cmax
  Cmax: 30.9 ng/mL
[1]; human, plasma, oral, 10 mg, Treatment F: 1 × 10 mg Formulation Concept 2 (milled API tablet), fasting, mean (SD)
  half-life: 31 h
[1]; human, plasma, oral, 10 mg, Treatment F: 1 × 10 mg Formulation Concept 2 (milled API tablet), fasting, mean (SD), read-out: AUClast
  AUC(0-t): 297 ng·h/mL
[1]; human, plasma, oral, 10 mg, Treatment F: 1 × 10 mg Formulation Concept 2 (milled API tablet), fasting, mean (SD), read-out: AUC∞
  AUC(0-inf): 318 ng·h/mL
[1]; human, plasma, oral, 10 mg, Treatment F: 1 × 10 mg Formulation Concept 2 (milled API tablet), fasting, median (range)
  Tmax: 1.5 h
[1]; human, plasma, oral, 10 mg, Treatment H: 1 × 10 mg Formulation Concept 2 (milled API tablet), after high-fat breakfast, mean
  half-life: 30.8 h
[1]; human, plasma, oral, 10 mg, Treatment H: 1 × 10 mg Formulation Concept 2 (milled API tablet), after high-fat breakfast, mean, read-out: AUClast
  AUC(0-t): 388 ng·h/mL
[1]; human, plasma, oral, 10 mg, Treatment H: 1 × 10 mg Formulation Concept 2 (milled API tablet), after high-fat breakfast, mean, read-out: AUC∞
  AUC(0-inf): 388 ng·h/mL
[1]; human, plasma, oral, 10 mg, Treatment H: 1 × 10 mg Formulation Concept 2 (milled API tablet), after high-fat breakfast, median
  Tmax: 2 h
[1]; human, plasma, po, 10 mg, Relative BA, completers, Treatment E (Reference): 2 × 5 mg oral capsule, fasting, read-out: Geometric Mean AUClast
  AUC(0-t): 291 ng·h/mL
[1]; human, plasma, po, 10 mg, Relative BA, completers, Treatment E (Reference): 2 × 5 mg oral capsule, fasting, read-out: Geometric Mean AUC∞
  AUC(0-inf): 297 ng·h/mL
[1]; human, plasma, po, 10 mg, Relative BA, completers, Treatment E (Reference): 2 × 5 mg oral capsule, fasting, read-out: Geometric Mean Cmax
  Cmax: 30.2 ng/mL
[1]; human, plasma, po, 10 mg, Treatment E: 2 × 5 mg oral capsule, fasting, mean
  half-life: 30.5 h
[1]; human, plasma, po, 10 mg, Treatment E: 2 × 5 mg oral capsule, fasting, mean, read-out: AUClast
  AUC(0-t): 308 ng·h/mL
[1]; human, plasma, po, 10 mg, Treatment E: 2 × 5 mg oral capsule, fasting, mean, read-out: AUC∞
  AUC(0-inf): 307 ng·h/mL
[1]; human, plasma, po, 10 mg, Treatment E: 2 × 5 mg oral capsule, fasting, mean, read-out: Cmax
  Cmax: 31.7 ng/mL
[1]; human, plasma, po, 10 mg, Treatment E: 2 × 5 mg oral capsule, fasting, median
  Tmax: 2 h
[2]; Week 1, eITT
  Cmax: 32.7 ± 10.9 ng/mL
[2]; Week 3, eITT
  Cmax: 33.5 ± 11.1 ng/mL
[2]; Week 6, eITT
  Cmax: 34.3 ± 11.1 ng/mL

Source: patent US12201610B2, “Compositions comprising aticaprant” (Janssen Pharmaceuticals, Inc., priority 2022, dated 2025)
